Literature values, collected in patent US20100093758A1, “PYRIDINE SULFONAMIDE MODULATORS OF ENDOTHELIN-A RECEPTOR” (AUSPEX PHARMACEUTICALS, INC., priority 2008, published 2010).

Experiments:
[1] = not given; remark: listed apart in the source

For COc1ccccc1Oc1c(NS(=O)(=O)c2ccc(C)cn2)nc(-c2ccncc2)nc1OC [Avosentan, 5-Methyl-pyridine-2-sulfonic acid [6-methoxy-5-(2-methoxy-phenoxy)-2-pyridin-4-yl-pyrimidin-4-yl]-amide], the fluid retention (at high concentrations) is given as “higher-than-expected rate of fluid retention”, the adverse events (typical for vasodilating agents) is given as “headache, nausea and vomiting, dizziness, and postural hypotension” and the “dose dependence of Cmax and AUC” value ([1]; doses up to 100 mg) is given as “increase linearly with doses up to 100 mg”. The “time at which maximum plasma levels are reached” value ([1]; in vivo) was at most 4.5 h, the urinary excretion ([1]; in vivo) was “below 0.1 % of any dose” and the “food effect on exposure and Cmax” value ([1]; with food) was “does not affect overall exposure but increases Cmax”.
